From patent publication US7601365B2, “Synergetic effects of HGF and antibacterial treatment” (Damavand Wound, AB, priority 2000, dated 2009)
Several values for one entry are separate records, joined by “and”; a condition that tells them apart may be missing. Equal entries are not always repeated. Marks after values point to notes of the source that are not given here.

Columns and labels:
[1] = system: spontaneous fungal infections and ulcers; assay: Mice with spontaneous fungal infections and ulcers, Gentiana violet with or without rhHGF; type: in vivo; conditions: local Gentiana violet once; the HGF mouse also rhHGF 10 ng subcutaneously
Method: Two mice (23-25 g) with spontaneous fungal infections and ulcers on their backs were shaved and treated locally with Gentiana violet once. One of them was simultaneously treated with hepatocyte growth factor (rhHGF) 10 ng subcutaneously. The hair growth was fine as in the other places of body, in the mouse that received HGF and fungicidal treatment. […] This example confirms the morphogenic effects of HGF in recovering after treated infectious injuries (see FIG. 7).

chronic leg ulcers [2] = assay: Micro-circulatory perfusion in ulcers by laser Doppler (LDPI); type: in vivo, human
Method: The micro-circulation within the ulcers was measured using LDPI. The LDPI system (PIMLO, Lisca Development AB, Sweden) utilises the Doppler principle by freely impinging coherent laser light onto the tissue and processing the backscattered, Doppler broadened, light to estimate the tissue perfusion without touching the skin. The perfusion estimate is proportional to the product of the mean velocity and the concentration of the moving blood cells.
(§1) Micro-circulation perfusion in ulcers compared to the intact contiguous skin was determined at the beginning, after one week and after three months (in 7 patients) and ulcer size and characteristics were also documented.

human skin fibroblasts = conditions: more than 1.0 ng/ml of HGF added to cultures media; cited from earlier work
chronic leg ulcers [3] = type: in vivo, human
Method: HGF in gel form was applied locally once daily for seven days in 15 of 19 chronic leg ulcers in eleven elderly patients in a pilot study. All patients had previously been treated with conventional methods and their leg ulcers had been in a rather stable condition for between one and fourteen years. Any signs of allergy, discomfort or pain were reported daily.
as §1
In contrast to the patients with unfavourable healing (non-responders) the healing process in the responders began during treatment and continued afterwards. There was a statistically significant correlation (r=0.94, p<0.002) between enhanced micro-circulation and ulcer area reduction in the treated ulcers. Simultaneously antibacterial treatment in the ulcers with signs of infection enhanced the therapy results considerably. […] Micro-circulatory perfusion, which might reflect the angiogenic effect of HGF, was positively correlated to ulcer area reduction. Local treatment by HGF seems to have positive effect on nearby, not locally treated, ulcers indicating systemic effects. […] HGF and representative antibacterial treatment have synergetic effects in treatment of chronic leg ulcers.

[4] = system: normal hairless skin in mice; assay: Local rhHGF on shaved normal hairless skin in mice, hair growth; type: in vivo
Method: Eighteen black mice (14-16 weeks old and 21-29 g weight) were shaved on their back, causing two 1×1 cm patches on the right and left side. They were then divided into 3 groups. Group I (n=6, females), Group 2 (n=6 males) and Group 3 (n=6, 3 males and 3 females). Group 1 were treated locally on the right side by 0.70 μg/kg (12-18 ng/cm^2 hairless skin) recombinant human hepatocyte growth factor (rhHGF) daily in 10 days. In order to prepare HGF preparations, recombinant human HGF (rhHGF) was provided commercially from R&D systems Inc., Minneapolis, USA. Group 2 (n=6 males) received 0.35 μg/kg/day (5-10 ng/cm^2 hairless skin) on the right side in 10 days. Group 3, non-treated, served as the control group. […] Although some significant differences were not obviously seen in the hair growth under treatment we were surprised to see that the animals in Group 1 did show a full double-sided hair growth in 5 animals 2 days after the treatment was ended (day 12). The same process in Group 2 and group 3 did take much a longer time (day 20 and day 21, respectively).

CCL-53.1 = assay: Restitution of scraped confluent monolayer; type: cell-based
Method: The confluent monolayer of CCL-53.1 was scraped off, forming long wounds. The area not covered by cells finally disappeared, and restitution (in control medium with 15% horse serum and 2.5 % FBS) was completed at 72 h. The addition of HGF together with the addition of antibiotic agent (streptomycin and penicillin) to the culture medium improved the restitution of the damaged area more rapidly than the control medium (10 times at 24 h) as well as to a medium including HGF without added antibiotic agents.

[5] = contiguous non-treated ulcer in a locally treated patient, up to three months

Molecule: CN(C)c1ccc(C(=C2C=CC(=[N+](C)C)C=C2)c2ccc(N(C)C)cc2)cc1.[Cl-] [Gentiana violet, reference compound]
- Quality of hair growth [1]: rough and irregular

Molecule: HGF: recombinant human HGF (rhHGF) provided commercially from R&D systems Inc., Minneapolis, USA
- Circ (NT) ratio, mean (chronic leg ulcers [2]; non-treated ulcers): 0.9/ND ratio
- Circ (NT) ratio, median (chronic leg ulcers [2]; non-treated ulcers): 0.9/ND ratio
- Circ (T) ratio, mean (chronic leg ulcers [2]; treated ulcers): 1.12 ratio
- Circ (T) ratio, median (chronic leg ulcers [2]; treated ulcers): 1.23 ratio
- Circ (T) ratio: relative change in local microcirculation (chronic leg ulcers [2]; treated ulcers, before treatment vs one week later, one line per patient): 1.29 ratio and 1.23 ratio and 1.28 ratio and 0.77 ratio and 0.72 ratio and 0.97 ratio and 1.48 ratio
- DNA synthesis (human skin fibroblasts): doubled
- Heal % (T), median (chronic leg ulcers [3]; 11 patients): 84%
- Heal % (NT), first listed non-treated ulcer (chronic leg ulcers [3]; [5]): 100/100% and 100%
- Heal % (NT), second listed non-treated ulcer (chronic leg ulcers [3]; [5]): 100/100% and 92%
- Signs of allergy or malignancy (chronic leg ulcers [3]; human, in vivo): No signs of allergy or malignancy were observed
- Patients with complete or partial healing (chronic leg ulcers [3]; local HGF treatment, ulcers incurable for up to fourteen years): 8/11
- Cases with complete cure of ulcers (chronic leg ulcers [3]; local HGF with appropriate oral antibiotics at the same time): at least 4 cases
- Heal % (NT), mean, first listed ulcer (chronic leg ulcers [3]; non-treated ulcers): 100%
- Heal % (NT), mean, second listed ulcer (chronic leg ulcers [3]; non-treated ulcers): 96%
- Heal % (NT), median, first listed ulcer (chronic leg ulcers [3]; non-treated ulcers): 100%
- Heal % (NT), median, second listed ulcer (chronic leg ulcers [3]; non-treated ulcers): 96%
- Course of ulcer after superinfection with resistant bacteria (chronic leg ulcers [3]; one patient with venous insufficiency, no appropriate antibiotics (penicillin allergy)): the ulcer increased dramatically in size
- Heal % (T), the two ulcers of patient 7 with different healing (chronic leg ulcers [3]; patient 7): (59-88%)♦
- Heal % (T), mean (chronic leg ulcers [3]; sum of total area reduction divided by sum of total area, 11 patients): 78* %
- Ulcers with favourable healing (58-59%) (chronic leg ulcers [3]; treated ulcers): two
- Ulcers with excellent healing (84-99%) (chronic leg ulcers [3]; treated ulcers, in four patients): four
- Ulcers with complete healing (100% area reduction) (chronic leg ulcers [3]; treated ulcers, in three patients): 5/15
- Ulcers with minimal improvement (25-30%) or relapse (chronic leg ulcers [3]; treated ulcers, three patients): four
- Healing of the four contiguous non-treated ulcers (chronic leg ulcers [3]; two patients): three healed completely and one excellent
- Signs of non-tolerance or diseases under or after treatment ([4]; 0.70 or 0.35 μg/kg/day locally, 10 days): None of the treated animals did show any sign of non-tolerance or diseases
- Day of full double-sided hair growth ([4]; Group 1: 0.70 μg/kg locally daily in 10 days, in 5 animals): 12 days
- Day of full double-sided hair growth ([4]; Group 2: 0.35 μg/kg/day locally in 10 days): 20 days
- Local dose that accelerates hair growth ([4]; normal hairless skin in mice): not less than 0.7 μg/kg
- Quality of hair growth [1]: fine
- Restitution of the damaged area relative to control medium (CCL-53.1; HGF together with streptomycin and penicillin in the culture medium, at 24 h): 10 times
- HGF concentration at which the effect is detectable (CCL-53.1; dose-dependent effect): ≥ 5 ng/mL
